Patent US12060408B2, “Screening assays, modulators and modulation of activation of Receptor for Advanced Glycation End-products (RAGE)” (Monash University, priority 2017, dated 2024)
Entries after “also recorded” stand apart in the source; their conditions may differ.

Key:
CCR2 = biological target: T1, CCR2 (Mus musculus, UniProt P51683); details: mouse models of multiple sclerosis, renal ischemia-reperfusion injury, ureteric obstruction, diabetic nephropathy; rat model of arthritis; cited from earlier work
T1 construct: host or cells: mouse models (and one rat model) in vivo

[1] = test system: RAGE ligand-independent activation of RAGE by activated AT1R; experiment: Ang II-induced NFκB activation (p65 gene expression, SEAP reporter) in AT1R-CHO cells with RAGE constructs; type: cell-based, human; details: construct expressed in AT1R-CHO cells, no wild-type RAGE
Protocol: (§1) Generation of Transgenic Chinese Hamster Ovary Cells
(§2) 100 ng of AT1R-Rluc8 construct was transfected into CHO cells using Lipofectamine 2000 (Thermo). Stable transfectants were selected using G418. AT1R—CHO were then transiently transfected with RAGE constructs using Lipofectamine 2000 (Invitrogen) and incubated for 16 h. The Homo sapiens AGER transcript variant 1 coding sequence (NM_001136) was synthesised and cloned between the NheI and XbaI sites of pCIneo (Promega) to generate the vector pCIneo-RAGE. This plasmid was then used to generate a library of mutant AGER clones (NP_001127). Primers 1-RAGE-SP-5′ and mCherry-XhoI-NotI-3′ were used to amplify the coding sequence of mCherry from the vector pmCherry-C1. The resultant PCR product was then used as template for a second PCR using primers 2-RAGE-SP-5′ and mCherry-XhoI-NotI-3′. The PCR product generated was digested with NheI and NotI and inserted between the NheI and NotI sites of pCIneo to generate pCIneo-SP-mCherry. The sequence of the insert was confirmed by DNA sequencing (Micromon, Monash University). […]
(§3) Cellular Expression of Pro-Inflammatory Markers and Mediators by Quantitative Real-Time PCR
(§4) After 2 hours of exposure to Ang II (1 μM) or the RAGE ligand, S100A8/A9 (5 ng/ml) cells were placed in Trizol, mRNA extracted and cDNA synthesized. Changes in the gene expression of the NFκB subunit, p65 (RelA) or NFκB-activated target genes (e.g ICAM-1, VCAM-1) were estimated by quantitative real-time RT-PCR, performed using the TaqMan system based on real-time detection of accumulated fluorescence (ABI Prism 7700, Perkin-Elmer Inc, PE Biosystems, Foster City, CA, USA). Gene expression was normalized to 18S mRNA and reported as fold change compared to the level of expression in untreated control mice/cells, which were given an arbitrary value of 1.
Oligopeptides (Cherry-TAT (control), mCherry-TAT-RAGE362-404 and mCherry-S391A-TAT-RAGE362-404 were generated by transformation of the Escherichia coli strain ClearColi BL21 (DE3; Lucigen). A single transformed colony was inoculated into 50 ml 2YT medium containing 100 μg/ml ampicillin and the culture was grown overnight at 37° C. with shaking at 250 rev/min. 10 ml overnight culture was used to inoculate 1 litre 2YT medium containing 100 μg/ml ampicillin and the culture was grown at 37° C. with shaking at 250 rev/min. When the cultures reached an OD600 of 0.8, the temperature was shifted to 15° C. for 30 min after which protein expression was induced by the addition of 1 mM isopropyl β-D-1-thiogalacto-pyranoside (IPTG). Following the addition of IPTG the cultures were grown for ˜16 h at 15° C. with shaking at 250 rev/min. Cells were harvested by centrifugation (3500 g, 4° C., 20 min) and resuspended in ice-cold lysis buffer (50 mM Tris pH 7.4, 300 mM NaCl, 10 mM imidazole and 5 mM beta-mercaptoethanol). The resuspended cells were sonicated and insoluble material was pelleted by centrifugation (13 000 g, 4° C., 30 min). The supernatant was filtered (0.2 μm) and applied onto a gravity-flow column with a 1 ml Ni-NTA Agarose resin bed volume (Qiagen) pre-equilibrated with lysis buffer. After the supernatant was passed over the resin, the column was washed with 100 ml of wash buffer (20 mM imidazole, 50 mM Tris pH 7.4, 150 mM NaCl, 5 mM beta-mercaptoethanol). His-tagged TAT-mCherry and TAT-mCherry-RAGE peptides were eluted from the resin using elution buffer (250 mM imidazole, 50 mM Tris pH 7.4, 150 mM NaCl, 5 mM beta-mercaptoethanol). […]

[2] = test system: primary murine aortic endothelial cells (PMAEC); experiment: Expression of pro-inflammatory markers by real-time RT-PCR in primary murine aortic endothelial cells; type: cell-based, mouse
Protocol: Primary aortic endothelial cells (PMAEC) were isolated from the aortae of (wild-type) C57bl6 mice and AGER KO mice and cultured in Dulbecco's modified Eagle's medium (DMEM)/F12 endothelial cell growth supplement (ECGS) supplemented media. Chinese Hamster Ovary (CHO) cells were cultured using F12 media (10% FCS with 2 mM glutamine). Human microvascular endothelial cells (HMEC) were cultured in MCDB 131 medium (10% FCS with 10 mM glutamine, EGF and hydrocortisone).
as §3, §4
Selective Silencing of Gene Expression Using siRNA
PMAEC from C57b/6 mice were also transfected with siRNA to RAGE (2 nM) Ambion, ID:s62119), p65 (RelA) (10 nM; Ambion, ID:s72857), MyD88 (10 nM; Ambion. ID:s201719), PKCζ (10 nM; Ambion, ID:s71716), IQGAP-1, Ambion, ID:s78119), Diaph1 (10 nM; sense5′-[…], antisense 3′-[…]; Invitrogen) or scrambled control #1 (2 nM or 10 nM; Ambion) using Lipofectamine RNAiMAX (Invitrogen) as per manufacturer's instructions. Cells were allowed to recover in media containing 10% FBS for 16 hours prior to treatment with 1 μM Ang II or 5 ng/ml of the RAGE ligand, S100A8/A9, as a signalling control.

[3] = test system: RAGE ligand-dependent activation of RAGE; experiment: S100A8/A9-induced NFκB activation (p65 gene expression) in CHO cells expressing RAGE constructs; type: cell-based, human
Protocol: as §1, §2, §3, §4
To measure the induction of NFκB activity by 1 μM Ang II, or 5 ng/ml of the RAGE-ligand S100A8/A9 as a signalling control, AT1R—CHO cells were transfected with 0.4 μg of plasmids encoding NFκB-SEAP or β-galactosidase (β-Gal) using Lipofectamine 2000 (Invitrogen) as per manufacturer's instructions. After 24 hours, cells transfected with each plasmid combination were then treated with Ang II (1 μM) or left untreated and incubated for 4 hours before cell supernatants and cell lysates were collected. Cell supernatants were analysed using a chemiluminescent SEAP reporter gene assay (Roche Applied Science) to detect SEAP production after treatment. To control for transfection efficiency, cell lysates were assayed for β-Gal using a commercially available kit (Promega).

T1 sequence (P51683 whole entry, the tested form may be a part): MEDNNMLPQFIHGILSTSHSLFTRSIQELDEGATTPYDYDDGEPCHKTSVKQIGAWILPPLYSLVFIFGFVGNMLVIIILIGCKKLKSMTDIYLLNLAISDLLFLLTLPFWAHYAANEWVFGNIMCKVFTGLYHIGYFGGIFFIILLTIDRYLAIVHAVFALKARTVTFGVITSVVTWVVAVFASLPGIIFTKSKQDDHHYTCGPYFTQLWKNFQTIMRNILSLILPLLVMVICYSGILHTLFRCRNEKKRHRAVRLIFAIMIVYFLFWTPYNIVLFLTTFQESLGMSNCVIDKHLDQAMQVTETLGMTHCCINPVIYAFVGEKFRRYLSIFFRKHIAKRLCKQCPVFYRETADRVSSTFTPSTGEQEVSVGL

## CCO[C@H]1CN(C2CCC(O)(c3ccc4c(c3)OCO4)CC2)C[C@@H]1NC(=O)CNC(=O)c1cccc(C(F)(F)F)c1 (stereo partly drawn) [INCB3344]
CCR2
  inflammation: suppress inflammation

## Cc1ccc2c(c1)C1(CCN(CCc3nc(-c4ccccc4)oc3C)CC1)OC(=O)N2 [RS-504393]
CCR2
  inflammation: suppress inflammation

## O=C(O)C[CH2][Ge](=[O])[O][Ge](=[O])[CH2]CC(=O)O [propagermanium, 3-[(2-Carboxyethyl-oxogermyl)oxy-oxogermyl]propanoic acid]
CCR2
  inflammation: suppress inflammation

## RAGE379-404: N-truncated RAGE construct, functional substitute of wild type RAGE (QEEEEERAELNQSEEPEAGESSTGGP; UniProt Q15109 379-404, looked up, fragment)
[1]
  ability of the RAGE construct to be activated and mediate pro-inflammatory signalling in response to Ang II: does not result in a loss of function; also recorded: able to be activated

## RAGE385-404: N-truncated RAGE construct eliminating both 380 and 384 (RAELNQSEEPEAGESSTGGP; UniProt Q15109 385-404, looked up, fragment)
[1]
  ability of the RAGE construct to be activated and mediate pro-inflammatory signalling in response to Ang II: loss of the modulatory actions

## soluble RAGE22-331: decoy receptor with ligand-binding affinity [reference compound]
[2]; PMAEC from wild type mice
  inhibition of Ang II (1 μM)-induced ICAM-1, VCAM-1 and MCP-1: do not inhibit
  inhibition of S100A8/A9-induced ICAM-1: inhibit
[3]; AT1R-CHO cells also expressing full length RAGE
  inhibition of S100A8/A9-induced p65 expression: inhibit

B1: S100A8/A9: RAGE ligand (protein)
chain 1: MLTELEKALNSIIDVYHKYSLIKGNFHAVYRDDLKKLLETECPQYIRKKGADVWFKELDINTDGAVNFQEFLILVIKMGVAAHKKSHEESHKE
chain 2: MTCKMSQLERNIETIINTFHQYSVKLGHPDTLNQGEFKELVRKDLQNFLKKENKNEKVIEHIMEDLDTNADKQLSFEEFIMLMARLTWASHEKMHEGDEGPGHHHKPGLGEGTP
[2]; PMAEC from AGER KO mice
  induction of pro-inflammatory genes: does not lead to the induction
[2]; PMAEC from C57bl6 mice, Ang II 1 μM or S100A8/A9
  expression of pro-inflammatory genes (ICAM-1, VCAM-1, TNFα, MCP-1): induction
[2]; PMAEC with AGER expression silenced using siRNA
  NFκB-dependent induction of VCAM-1 gene expression: preventing
[3]; CHO cells expressing the RAGE polypeptide, 5 ng/ml
  activation of p65-NFκB: able to induce activation
